Measurements: patent publication US20170095578A1, “CT SCANS USING GADOLINIUM-BASED CONTRAST AGENT” (UNIVERSITY OF MASSACHUSETTS MEDICAL SCHOOL, priority 2014, published 2017)

Legend:
[1] = gadoxetate disodium-enhanced CT scan of a human patient; type: in vivo
Protocol: (§1) A patient was undergoing evaluation for living liver donation.
FIG. 7A is an enhanced CT scan image of their liver using gadoxetate disodium as a contract agent according to principles of the invention. […] In this particular patient the CT scan was obtained 99 minutes after the gadoxetate disodium-enhanced MRI shown in FIG. 7B, a relatively long interval to image gallbladder filling. A better contrast resolution is expected when using shorter interval. The highest concentration of contrast within the gallbladder, and therefore the best contrast resolution, is expected between 30 to 60 minutes from the time of intravenous injection of contrast.
The CT scan technique used included a slice thickness of 4.00 mm, and a field of view of 283.0 mm. The x-ray radiation was generated using 120 kV and a current of 182 mA, with a tube current of 182 mA and tube current-time product of 213 mAs.

[2] = gadoxetate disodium-enhanced MRI of the same patient; type: in vivo, human; settings: MRI 20 minutes following intravenous administration
Protocol: as §1
FIG. 7B is a gadoxetate disodium-enhanced MRI image of the same patient. […] The MRI of FIG. 7B was obtained 20 minutes following intravenous administration of gadoxetate disodium.

For `CCOc1ccc(CC(CN(CCN(CC(=O)[O-])CC(=O)[O-])CC(=O)[O-])N(CC(=O)[O-])CC(=O)[O-])cc1.[Gd+3].[Na+].[Na+]` (stereo not drawn) [gadoxetate disodium, Gadoxetate disodium], the “gallbladder opacification under CT imaging conditions” value ([1]; following intravenous injection) was “clearly demonstrates gallbladder opacification”, the “visualization of excreted hepatobiliary contrast in the gallbladder on CT” value ([1]; patient, arterial phase CT at 120 kV, 182 mA, 99 minutes after the gadoxetate disodium-enhanced MRI) was “anti-dependant hyperdensity within the gallbladder fundus” and the “visualization of excreted contrast in the gallbladder on MRI” value [2] was “excreted contrast within the gallbladder lumen”.
